Test results taken from US5210193A, “Piperazine derivatives” (American Cyanamid Company, priority 1990, dated 1993).
Values after ≈ are worked out from the molar mass of the structure shown. Values joined by “and” are separate entries in the source; they are usually repeats but may differ in a detail not shown here. Equal entries are not always repeated. Structures can show the parent of a compound that is named as a salt. Where two headings read alike, the source gives them in different places. Each block holds one compound with its values, some of them ahead of it.

How the values were obtained:
Assay in all cases: in vitro antibacterial MIC, agar plate dilution
Format in all cases: cell-based
[1] = test system: Pseudomonas aeruginosa VGH 84-4; details: Pseudomonas aeruginosa, VGH844, 18 h, 35° C., read-out: MIC
Method in brief: (§1)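 Agar plate dilution on Mueller-Hinton agar, inoculum approximately 10^4 CFU per organism applied with a Steers replicator. MIC (mcg/ml) is the lowest compound concentration inhibiting visible growth after 18 hours at 35° C.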

[2] = test system: Streptococcus faecalis ATTC 29212; details: Enterococcus faecalis, ATTC29212, 18 hours, 35° C., read-out: MIC
Method in brief: as §1

[3] = test system: Staphylococcus epidermidis IO 83-58; details: IO8358, 18 hours, 35° C., read-out: MIC
Method in brief: as §1

[4] = test system: Staphylococcus epidermidis VGH 84-40; details: VGH8440, 18 hours, 35° C., read-out: MIC
Method in brief: as §1

[5] = test system: Morganella morganii CMC 84-37; details: 35° C.
Method in brief: as §1

[6] = test system: Escherichia coli ATCC 25922; details: 35° C.
Method in brief: as §1

[7] = test system: Enterobacter aerogenes VGH 84-36; details: Klebsiella aerogenes, VGH8436, 18 hours, 35° C., read-out: MIC
Method in brief: as §1

[8] = test system: Staphylococcus aureus CMC 83-127; details: Staphylococcus aureus, CMC83127, 18 h, 35° C., read-out: MIC
Method in brief: as §1

Escherichia coli NAR 311 = details: NAR311, 18 hours, 35° C., read-out: MIC
Method in brief: as §1

[9] = test system: Staphylococcus aureus VGH 84-46; details: Staphylococcus aureus, VGH8446, 18 h, 35° C., read-out: MIC
Method in brief: as §1

[10] = test system: Staphylococcus aureus CMC 83-128; details: CMC83128, 18 hours, 35° C., read-out: MIC
Method in brief: as §1

[11] = test system: Staphylococcus aureus ATTC 29213; details: 35° C.
Method in brief: as §1

[12] = test system: Staphylococcus aureus VGH 84-45; details: 35° C.
Method in brief: as §1

[13] = test system: Enterobacter cloacae VGH 84-37; details: Enterobacter cloacae, VGH8437, 18 h, 35° C., read-out: MIC
Method in brief: as §1

[14] = test system: Streptococcus faecalis VGH 84-65; details: Enterococcus faecalis, VGH8465, 18 h, 35° C., read-out: MIC
Method in brief: as §1

[15] = test system: Klebsiella pneumoniae MOR 84-4; details: Klebsiella pneumoniae, MOR844, 18 h, 35° C., read-out: MIC
Method in brief: as §1

[16] = test system: Escherichia coli PRNT 311; details: PRNT311, 18 hours, 35° C., read-out: MIC
Method in brief: as §1

[17] = test system: Serratia marcescens K 84-18; details: 35° C.
Method in brief: as §1

[18] = test system: Enterobacter cloacae K 84-10; details: 35° C.
Method in brief: as §1

[19] = test system: Staphylococcus aureus Smith; details: 35° C.
Method in brief: as §1

Klebsiella pneumoniae AD = details: Klebsiella pneumoniae, 18 h, 35° C., read-out: MIC
Method in brief: as §1

[20] = test system: Escherichia coli CMC 84-11; details: 35° C.
Method in brief: as §1

[21] = test system: Proteus rettgeri CMC 84-41; details: 35° C.
Method in brief: as §1

[22] = test system: Klebsiella oxytoca MOR 84-28; details: MOR8428, 18 hours, 35° C.
Method in brief: as §1

[23] = test system: Escherichia coli CMC 84-16; details: Escherichia coli, CMC8416, 18 h, 35° C., read-out: MIC
Method in brief: as §1

[24] = test system: Staphylococcus aureus ATCC 25913; details: ATCC25913, 18 hours, 35° C.
Method in brief: as §1

[25] = test system: Pseudomonas aeruginosa LL-1244; details: Pseudomonas aeruginosa, LL1244, 18 h, 35° C., read-out: MIC
Method in brief: as §1

[26] = test system: Staphylococcus epidermidis CMC 83-135; details: CMC83135, 18 hours, 35° C., read-out: MIC
Method in brief: as §1

[27] = test system: Serratia marcescens F 0-35; details: Serratia marcescens, F035, 18 h, 35° C., read-out: MIC
Method in brief: as §1

[28] = test system: Morganella morganii VGH 84-11; details: VGH8411, 18 hours, 35° C., read-out: MIC
Method in brief: as §1

[29] = test system: Staphylococcus Spp saprophiticus VGH 84-50; details: 18 hours, 35° C., read-out: MIC
Method in brief: as §1

[30] = test system: Serratia marcescens CMC 83-74; details: 18 hours, 35° C., monohydrochloride
Method in brief: as §1

[31] = test system: Serratia marcescens MOR 84-41; details: 18 hours, 35° C., monohydrochloride
Method in brief: as §1

[32] = test system: Streptococcus faecalis UCI 85-30; details: 18 hours, 35° C., monohydrochloride
Method in brief: as §1

[33] = test system: Morganella morganii CMC 84-38; details: 18 hours, 35° C., monohydrochloride
Method in brief: as §1

[34] = test system: Staphylococcus aureus K 82-26; details: 18 hours, 35° C., monohydrochloride
Method in brief: as §1

[35] = test system: Enterobacter cloacae MOR 84-30; details: 18 hours, 35° C., monohydrochloride
Method in brief: as §1

[36] = test system: Escherichia coli MOR 84-20; details: 18 hours, 35° C., monohydrochloride
Method in brief: as §1

[37] = test system: Klebsiella pneumoniae CMC 84-31; details: 18 hours, 35° C., monohydrochloride
Method in brief: as §1

[38] = test system: Enterobacter cloacae VGH 84-39; details: 18 hours, 35° C., monohydrochloride
Method in brief: as §1

[39] = test system: Streptococcus faecalis UCI 85-19; details: 35° C.
Method in brief: as §1

[40] = test system: Streptococcus faecalis VGH 84-69; details: 18 hours, 35° C., monohydrochloride
Method in brief: as §1

[41] = test system: Escherichia coli CMC 84-50; details: 18 hours, 35° C., monohydrochloride
Method in brief: as §1

[42] = test system: Morganella morganii MOR 84-45; details: 18 hours, 35° C., monohydrochloride
Method in brief: as §1

[43] = test system: Streptococcus faecalis CMC 83-120; details: 18 hours, 35° C., monohydrochloride
Method in brief: as §1

[44] = test system: Escherichia coli VGH 84-19; details: 18 hours, 35° C., monohydrochloride
Method in brief: as §1

[45] = test system: Klebsiella pneumoniae MOR 84-24; details: 18 hours, 35° C., monohydrochloride
Method in brief: as §1

[46] = test system: Morganella morganii VHG 84-12; details: Morganella morganii VHG 84-12 (VGH 84-12 for Example 131); 18 hours, 35° C.; monohydrochloride
Method in brief: as §1

[47] = test system: Proteus rettgeri IO 83-21; details: 18 hours, 35° C., monohydrochloride
Method in brief: as §1

[48] = test system: Staphylococcus aureus CMC 83-131; details: 18 hours, 35° C., monohydrochloride
Method in brief: as §1

[49] = test system: Klebsiella pneumoniae IO 83-5; details: 18 hours, 35° C., monohydrochloride
Method in brief: as §1

[50] = test system: Providencia stuarti CMC 83-3; details: 18 hours, 35° C., monohydrochloride
Method in brief: as §1

[51] = test system: Staphylococcus aureus VGH 84-47; details: 18 hours, 35° C., monohydrochloride
Method in brief: as §1

[52] = test system: Pseudomonas aeruginosa CMC 83-20; details: 18 hours, 35° C., monohydrochloride
Method in brief: as §1

Escherichia coli LL 311 = details: Escherichia coli, LL311, 18 h, 35° C., read-out: MIC
Method in brief: as §1

[53] = test system: Serratia marcescens VGH 84-30; details: Serratia marcescens, VGH8430, 18 h, 35° C., read-out: MIC
Method in brief: as §1

[54] = test system: Pseudomonas aeruginosa VGH 84-3; details: 18 hours, 35° C., monohydrochloride
Method in brief: as §1

[55] = test system: Pseudomonas aeruginosa K 84-16; details: 18 hours, 35° C., monohydrochloride
Method in brief: as §1

[56] = Morganella morganii, CMC8437, 18 h, read-out: MIC
[57] = Staphylococcus aureus, VGH8445, 18 h, read-out: MIC
[58] = Staphylococcus aureus, 18 h, read-out: MIC

MIC [1]: > 256 µg/mL | MIC [2]: 256 µg/mL (≈ 550 µM) | MIC [3]: 8 µg/mL (≈ 17.2 µM) | MIC [4]: 0.5 µg/mL (≈ 1.07 µM) | MIC [5, 56]: 256 µg/mL (≈ 550 µM) | MIC ([6]; Escherichia coli, ATCC25922, 18 h, read-out: MIC): > 256 µg/mL | MIC [7]: > 256 µg/mL | MIC [8]: 0.5 µg/mL (≈ 1.07 µM) | MIC (Escherichia coli NAR 311): > 256 µg/mL | MIC [9]: 2 µg/mL (≈ 4.3 µM) | MIC [10]: 4 µg/mL (≈ 8.59 µM) | MIC ([11]; Staphylococcus aureus, ATTC29213, 18 h, read-out: MIC): 4 µg/mL (≈ 8.59 µM) | MIC [12, 57]: 2 µg/mL (≈ 4.3 µM) | MIC [13]: > 256 µg/mL | MIC [14]: 256 µg/mL (≈ 550 µM) | MIC [15]: > 256 µg/mL | MIC [16]: > 256 µg/mL | MIC ([17]; Serratia marcescens, K8418, 18 h, read-out: MIC): > 256 µg/mL | MIC ([18]; Enterobacter cloacae, K8410, 18 h, read-out: MIC): > 256 µg/mL | MIC [19, 58]: 2 µg/mL (≈ 4.3 µM) | MIC (Klebsiella pneumoniae AD): > 256 µg/mL | MIC ([20]; Escherichia coli, CMC8411, 18 h, read-out: MIC): > 256 µg/mL | MIC ([21]; Providencia rettgeri, CMC8441, 18 h, read-out: MIC): 256 µg/mL (≈ 550 µM) | MIC [22]: > 256 µg/mL | MIC [23]: > 256 µg/mL | MIC [24]: 4 µg/mL (≈ 8.59 µM) | MIC [25]: > 256 µg/mL | MIC [26]: 2 µg/mL (≈ 4.3 µM) | MIC [27]: > 256 µg/mL | MIC [28]: 256 µg/mL (≈ 550 µM) | MIC [29]: 32 µg/mL (≈ 68.7 µM)
SMILES: CCn1cc(C(=O)O)c(=O)c2cc(F)c(N3CCNC(c4sc5ccccc5c4C)C3)cc21 (stereo not drawn) [Example 22, 1-Ethyl-6-fluoro-1,4-dihydro-7-[3-(3-methylbenzo[b]-thien-2-yl)-1-piperazinyl]-4-oxo-3-quinolinecarboxylic acid]

MIC [30]: 16 µg/mL | MIC ([5]; 18 hours, monohydrochloride): 0.12 µg/mL | MIC [31]: 0.5 µg/mL | MIC [32]: 4 µg/mL | MIC ([6]; 18 hours, monohydrochloride): 0.03 µg/mL and 0.06 µg/mL | MIC [33]: 0.25 µg/mL | MIC [34]: 2 µg/mL | MIC ([12]; 18 hours, monohydrochloride): 0.03 µg/mL | MIC [35]: 0.5 µg/mL | MIC [36]: 0.12 µg/mL | MIC [37]: 0.25 µg/mL | MIC [38]: 0.25 µg/mL | MIC ([39]; 18 hours): 2 µg/mL | MIC [40]: 2 µg/mL | MIC ([17]; 18 hours, monohydrochloride): 0.25 µg/mL | MIC [41]: 0.25 µg/mL | MIC ([19]; 18 hours, monohydrochloride): 0.03 µg/mL | MIC [42]: 0.25 µg/mL | MIC [43]: 2 µg/mL | MIC [44]: 0.12 µg/mL | MIC ([20]; 18 hours, monohydrochloride): 0.03 µg/mL | MIC [45]: 0.5 µg/mL | MIC [46]: 0.5 µg/mL | MIC [47]: 0.5 µg/mL | MIC [48]: 0.25 µg/mL | MIC [49]: 0.5 µg/mL | MIC [50]: 16 µg/mL | MIC [51]: 0.12 µg/mL
SMILES: O=C(O)c1cn(C2CC2)c2cc(N3CCNC(c4ccccn4)C3)c(F)cc2c1=O (stereo not drawn) [Example 129, 1-Cyclopropyl-6-fluoro-1,4-dihydro-4-oxo-7-[3-(2-pyridinyl) -1-piperazinyl]-3-quinolinecarboxylic acid, monohydrochloride]

MIC [30]: 8 µg/mL | MIC [1]: 2 µg/mL | MIC [5, 56]: 0.12 µg/mL | MIC [31]: 0.25 µg/mL | MIC [32]: 0.5 µg/mL | MIC ([6]; 18 hours, monohydrochloride): 0.06 µg/mL and 0.12 µg/mL | MIC [33]: 0.12 µg/mL | MIC [34]: 0.03 µg/mL | MIC ([11]; 18 hours, monohydrochloride): 0.03 µg/mL | MIC [12, 57]: < 0.015 µg/mL | MIC [52]: 4 µg/mL | MIC [35]: 0.25 µg/mL | MIC [14]: 0.5 µg/mL | MIC ([39]; Enterococcus faecalis, UCI8519, 18 h, read-out: MIC): 0.5 µg/mL | MIC (Escherichia coli LL 311): 0.03 µg/mL | MIC ([17]; 18 hours, monohydrochloride): 0.5 µg/mL | MIC ([18]; 18 hours, monohydrochloride): 0.06 µg/mL | MIC [19, 58]: < 0.015 µg/mL | MIC [43]: 0.5 µg/mL | MIC ([21]; 18 hours, monohydrochloride): 0.12 µg/mL | MIC [53]: 8 µg/mL | MIC [54]: 16 µg/mL | MIC [25]: 4 µg/mL | MIC [50]: 8 µg/mL | MIC [55]: 4 µg/mL
SMILES: O=C(O)c1cn(C2CC2)c2cc(N3CCNC(c4ccco4)C3)c(F)cc2c1=O (stereo not drawn) [Example 99, 1-Cyclopropyl-6-fluoro-1,4-dihydro-4-oxo-7-[3-(2-furanyl) -1-piperazinyl-3-quinolinecarboxylic acid, monohydrochloride]
